Numbers after ± are expanded uncertainties.

A short description of data set [1]: xn = mol fraction of the nth substance listed. The settings on record: 100 kPa, Liquid, Vibrating tube method, x2 = 0.9938.
For data set [2] the following is noted: Liquid; for mass density: 100 kPa, Vibrating tube method; for speed of sound: 101.33 kPa, Single path-length method.

`CCCCOCCCN` [3-butoxy-1-propanamine] + O: the mass density (as a rule, the mass of a sample divided by its volume) in data set [1] (283.15 K) was found to be 996.79 ± 1 kg/m3; in data set [1] (288.15 K), 995.99 ± 1 kg/m3; in data set [1] (293.15 K), 994.84 ± 1 kg/m3; in data set [1] (298.15 K), 993.43 ± 0.99 kg/m3; in data set [1] (303.15 K), 991.89 ± 0.99 kg/m3.

For the molecule `OCCCO` [propan-1,3-diol], the mass density in data set [2] (283.15 K) worked out at 1059.63 ± 1.4 kg/m3; in data set [2] (288.15 K), 1056.47 ± 1.4 kg/m3; in data set [2] (293.15 K), 1053.3 ± 1.4 kg/m3; in data set [2] (298.15 K), 1050.14 ± 1.4 kg/m3; in data set [2] (303.15 K), 1046.99 ± 1.4 kg/m3. The speed of sound – broadly, the propagation velocity of pressure waves in the medium – in data set [2] (283.15 K) came out at 1658.7 ± 2.4 m/s; in data set [2] (288.15 K), 1647.2 ± 2.4 m/s; in data set [2] (293.15 K), 1635.9 ± 2.4 m/s; in data set [2] (298.15 K), 1624.6 ± 2.4 m/s; in data set [2] (303.15 K) it was 1613.3 ± 2.4 m/s.
